Results from the supplement of paper PMC11451515.

Tested on: P12-Ichikawa
Assay: cell viability relative to DMSO control; higher = less cytotoxic
Conditions: 48 h
Procedure, shortened: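 Leukemia cells (NOMO1 or SEM, 500 cells/well; P12-Ichikawa, 1000 cells/well) were seeded in 5 μl in 1536-well plates after at least four passages of adaptation to each medium. They received library compounds in DMSO by pin dosing, 11 threefold points from 47 μM to 0.79 nM. Luminescence with CellTiter-Glo One was read after 48 h at 37°C. Viability is stated per plate relative to DMSO wells, with cell-free wells as background.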

[1] = HPLM + 10% dialyzed FBS, 0.000781 µM
[2] = HPLM + 10% dialyzed FBS, 0.00234 µM
[3] = HPLM + 10% dialyzed FBS, 0.00702 µM
[4] = HPLM + 10% dialyzed FBS, 0.0211 µM
[5] = HPLM + 10% dialyzed FBS, 0.0632 µM
[6] = HPLM + 10% dialyzed FBS, 0.19 µM
[7] = HPLM + 10% dialyzed FBS, 0.569 µM
[8] = HPLM + 10% dialyzed FBS, 1.71 µM
[9] = HPLM + 10% dialyzed FBS, 5.12 µM
[10] = HPLM + 10% dialyzed FBS, 15.4 µM
[11] = HPLM + 10% dialyzed FBS, 46.1 µM
[12] = RPMI 5 mM glucose + 10% dialyzed FBS, 0.000781 µM
[13] = RPMI 5 mM glucose + 10% dialyzed FBS, 0.00234 µM
[14] = RPMI 5 mM glucose + 10% dialyzed FBS, 0.00702 µM
[15] = RPMI 5 mM glucose + 10% dialyzed FBS, 0.0211 µM
[16] = RPMI 5 mM glucose + 10% dialyzed FBS, 0.0632 µM
[17] = RPMI 5 mM glucose + 10% dialyzed FBS, 0.19 µM
[18] = RPMI 5 mM glucose + 10% dialyzed FBS, 0.569 µM
[19] = RPMI 5 mM glucose + 10% dialyzed FBS, 1.71 µM
[20] = RPMI 5 mM glucose + 10% dialyzed FBS, 5.12 µM
[21] = RPMI 5 mM glucose + 10% dialyzed FBS, 15.4 µM
[22] = RPMI 5 mM glucose + 10% dialyzed FBS, 46.1 µM
[23] = RPMI 5 mM glucose + 10% FBS, 0.000781 µM
[24] = RPMI 5 mM glucose + 10% FBS, 0.00234 µM
[25] = RPMI 5 mM glucose + 10% FBS, 0.00702 µM
[26] = RPMI 5 mM glucose + 10% FBS, 0.0211 µM
[27] = RPMI 5 mM glucose + 10% FBS, 0.0632 µM
[28] = RPMI 5 mM glucose + 10% FBS, 0.19 µM
[29] = RPMI 5 mM glucose + 10% FBS, 0.569 µM
[30] = RPMI 5 mM glucose + 10% FBS, 1.71 µM
[31] = RPMI 5 mM glucose + 10% FBS, 5.12 µM
[32] = RPMI 5 mM glucose + 10% FBS, 15.4 µM
[33] = RPMI 5 mM glucose + 10% FBS, 46.1 µM

| Structure (SMILES) | cell viability [1] | cell viability [2] | cell viability [3] | cell viability [4] | cell viability [5] | cell viability [6] | cell viability [7] | cell viability [8] | cell viability [9] | cell viability [10] | cell viability [11] | cell viability [12] | cell viability [13] | cell viability [14] | cell viability [15] | cell viability [16] | cell viability [17] | cell viability [18] | cell viability [19] | cell viability [20] | cell viability [21] | cell viability [22] | cell viability [23] | cell viability [24] | cell viability [25] | cell viability [26] | cell viability [27] | cell viability [28] | cell viability [29] | cell viability [30] | cell viability [31] | cell viability [32] | cell viability [33] |
| --- | --- | --- | --- | --- | --- | --- | --- | --- | --- | --- | --- | --- | --- | --- | --- | --- | --- | --- | --- | --- | --- | --- | --- | --- | --- | --- | --- | --- | --- | --- | --- | --- | --- |
| CC1(C)C(=O)N(CCN2CCC(C(=O)c3ccc(F)cc3)CC2)c2ccccc21 | 112% | 116% | 117% | 120% | 118% | 123% | 126% | 122% | 120% | 120% | 113% | 109% | 110% | 118% | 123% | 126% | 125% | 121% | 123% | 115% | 97.9% | 93.5% | – | – | – | – | – | – | – | – | – | – | – |
| ClC1=CC(=CC=C1)N2CCN(CCCN3\N=C4\C=C/C=C\N4C3=O)CC2 | 118% | 120% | 120% | 134% | 128% | 132% | 134% | 142% | 140% | 134% | 139% | – | – | – | – | – | – | – | – | – | – | – | – | – | – | – | – | – | – | – | – | – | – |
| CCOc1cc(N)c(Cl)cc1C(=O)NCC1CN(Cc2ccc(F)cc2)CCO1 (centres undefined) | 104% | 110% | 106% | 110% | 110% | 111% | 109% | 100% | 119% | 112% | 109% | 99.3% | 106% | 106% | 102% | 108% | 117% | 107% | 112% | 106% | 105% | 104% | 107% | 116% | 106% | 112% | 109% | 115% | 115% | 115% | 115% | 119% | 112% |
| CC(C)(C)c1cc(C=C(C#N)C#N)cc(Br)c1O | 96.9% | 116% | 74.7% | 114% | 122% | 122% | 123% | 120% | 121% | 116% | 104% | 106% | 114% | 79.7% | 116% | 126% | 132% | 117% | 132% | 130% | 113% | 110% | 101% | 110% | 67.7% | 117% | 115% | 123% | 124% | 113% | 123% | 121% | 100% |
| CC(=O)N1CCN(c2ccc(OCc3nn(C)c(C)c3-c3cccc4c(CCCOc5cccc6ccccc56)c(C(=O)O)n(Cc5cccnc5)c34)cc2)CC1 | 108% | 116% | 123% | 122% | 120% | 119% | 124% | 122% | 108% | 31.8% | 9.79% | 107% | 124% | 121% | 128% | 128% | 123% | 136% | 129% | 134% | 91.1% | 25.5% | 98.4% | 118% | 123% | 123% | 124% | 125% | 137% | 135% | 123% | 28.2% | 11% |
| Oc1ccc(C2CCN(c3ccnc4ccccc34)CC2)cc1O | 102% | 118% | 111% | 113% | 112% | 117% | 110% | 106% | 70.8% | 67.4% | 63.4% | 96.5% | 113% | 106% | 110% | 107% | 112% | 111% | 97.5% | 59.2% | 45.8% | 40.8% | 112% | 110% | 109% | 125% | 122% | 107% | 113% | 110% | 71.5% | 55.1% | 48.5% |
| C\C1=C\C(=O)C2=C(C=CC=C2)C1=O | 108% | 104% | 118% | 125% | 128% | 120% | 127% | 125% | 122% | 116% | 123% | 119% | 122% | 121% | 130% | 127% | 137% | 128% | 118% | 120% | 131% | 128% | 107% | 119% | 109% | 130% | 125% | 118% | 125% | 135% | 134% | 139% | 131% |
| NC(=O)c1ncn([C@@H]2O[C@H](CO)[C@@H](O)[C@H]2O)n1 | 122% | 120% | 102% | 109% | 110% | 118% | 116% | 111% | 96.3% | 82% | 76.1% | 115% | 107% | 123% | 115% | 120% | 100% | 106% | 105% | 82.4% | 69.3% | 62.5% | 116% | 121% | 115% | 123% | 122% | 103% | 112% | 104% | 88.3% | 79.4% | 62.8% |
| CC(=O)O[C@@]1(CC[C@H]2[C@@H]3\C=C(C)/C4=C/C(=O)CC[C@]4(C)[C@H]3CC[C@]12C)C(C)=O | 99.7% | 115% | 109% | 114% | 109% | 117% | 112% | 112% | 115% | 106% | 89.1% | 94.9% | 102% | 101% | 112% | 103% | 108% | 106% | 107% | 98.2% | 93.2% | 79% | 101% | 107% | 110% | 117% | 115% | 117% | 120% | 109% | 100% | 99.5% | 85.5% |
| O=C1C[C@@H](c2ccc(O)cc2)Oc2cc(O)cc(O)c21 | 130% | 119% | 120% | 116% | 119% | 120% | 112% | 110% | 102% | 114% | 121% | 120% | 120% | 120% | 122% | 115% | 130% | 120% | 104% | 110% | 110% | 103% | 125% | 124% | 119% | 124% | 118% | 129% | 114% | 121% | 107% | 110% | 114% |
| CC(=O)OCC(=O)[C@@]12\N=C(C)/O[C@@H]1C[C@H]3[C@@H]4CCC/5=C/C(=O)/C=C\[C@]5(C)[C@H]4[C@@H](O)C[C@]23C | 103% | 111% | 108% | 113% | 103% | 114% | 108% | 105% | 80.6% | 73% | 63.9% | 93.6% | 102% | 112% | 107% | 104% | 111% | 102% | 86.9% | 67.2% | 57.7% | 49.4% | 102% | 123% | 116% | 114% | 85.1% | 115% | 115% | 94.1% | 85.5% | 62.8% | 55% |
| O=C(NC[C@H]1CN(c2ccc(N3CCOCC3=O)cc2)C(=O)O1)c1ccc(Cl)s1 | 104% | 111% | 112% | 115% | 113% | 119% | 122% | 114% | 16% | 13.4% | 12.4% | 103% | 119% | 115% | 125% | 126% | 123% | 134% | 132% | 51.1% | 37.8% | 19.3% | – | – | – | – | – | – | – | – | – | – | – |
| CN(C)CCc1c[nH]c2ccc(C[C@H]3COC(=O)N3)cc12 | 98.4% | 109% | 109% | 115% | 105% | 105% | 116% | 112% | 88.7% | 13.7% | 9.01% | 108% | 100% | 105% | 111% | 106% | 111% | 104% | 112% | 80.2% | 38.2% | 7.95% | 105% | 101% | 112% | 104% | 111% | 117% | 116% | 102% | 84.1% | 36.2% | 6.37% |
| CC\1=C(C(=O)N(\C=C1)C2=CC=C(C=C2)C3=NC=CO3)/C4=CC5=CN=C(N)N=C5C=C4 | 105% | 114% | 111% | 108% | 115% | 111% | 109% | 117% | 105% | 110% | 91.3% | 102% | 103% | 111% | 112% | 117% | 109% | 111% | 110% | 94.2% | 105% | 79.6% | 106% | 112% | 108% | 102% | 112% | 105% | 109% | 102% | 106% | 98.6% | 80.2% |
| CN1CCC(CC1)COC2=CN=C(N=C2)C3=CC(=CC=C3)CN4/N=C(\C=C/C4=O)C5=CC(=CC=C5)C#N | 103% | 112% | 112% | 114% | 119% | 112% | 114% | 123% | 113% | 112% | 105% | 117% | 112% | 119% | 112% | 130% | 123% | 131% | 120% | 118% | 121% | 122% | 107% | 113% | 111% | 102% | 122% | 118% | 118% | 111% | 123% | 112% | 113% |
| N[S+](=O)([O-])c1cc(Cl)c(Cl)c([S+](N)(=O)[O-])c1 | 116% | 108% | 112% | 112% | 107% | 105% | 92.3% | 102% | 108% | 101% | 97.9% | 97.5% | 105% | 97% | 101% | 104% | 101% | 105% | 97.2% | 101% | 98% | 89.8% | 100% | 109% | 109% | 113% | 100% | 103% | 106% | 97.3% | 106% | 99.8% | 100% |
